The subject of this assay is SARS-CoV pseudovirus entry in ACE2 overexpressing A549 human lung alveolar basal epithelium cells. Format: cell-based.

rhAAT: the SARS-CoV pseudovirus entry entry is “inhibits viral entry of several viruses”.

Source of the values: US20230302104A1, “TREATMENT AND/OR PREVENTION OF A DISEASE OR A SYNDROME RELATED TO A VIRUS INFECTION” (priority 2020, published 2023).
